Values quoted from earlier work in PMC9389927 (Renal Failure, 2022).

Tested on: experimental model of AKI

Q: Which Glomerular filtration rate does the source give for “IGF-1: long-chain polypeptide composed of dozens of amino acids, including four domains, A, B, C and D” here?
A: The Glomerular filtration rate was “increased the glomerular filtration rate”.
